Data taken from US12605371B2, “Combination therapy for cancer” (The Board of Trustees of the Leland Stanford Junior …, priority 2020, dated 2026).
“Also recorded” adds a separate entry of the source. Values belong to the molecule of their own block, whether it stands above or below them.

Legend:
[1] = tested on: factor Xa-protease-activated receptor 2 signaling in TAMs; conditions: in vivo; cited from earlier work
B16 cells [2] = experiment: Apoptosis assay (camptothecin, Annexin V), B16 cells; assay type: cell-based, mouse; conditions: 10 nM, 20 μM camptothecin, 4 hr
Experimental: Apoptosis assay: 1×10^5 B16 cells were cultured in DMEM without serum overnight before addition of 20 μM camptothecin (Abcam, Burlingame, CA) in the presence of BSA or OPN fragments (10 nM). Cells were then incubated for 4 hr before addition of 200 μl of binding buffer. The plate was centrifuged at 400 g for 5 min and supernatant discarded. Annexin V FITC stain (Cayman chemicals, Ann Arbor, MI) was added to the cells and incubated at RT for 10 min in the dark. Cells were centrifuged as described above and 100 μl of binding buffer was added to each cell and fluorescence intensity measured at 485/535 nm (excitation/emission). Apoptotic index was calculated by dividing the camptothecin-treated cells with untreated cells.

B16 cells [3] = experiment: Cell migration assay (transwell), B16 cells; assay type: cell-based, mouse; conditions: 10 nM, 24 hr
Experimental: Cell migration assay: 10^5 B16 cells were placed in the upper chamber of a 6.5 mm transwell with a pore size of 8.0 μm (Sigma, XX). Cells were allowed to settle before the lower chamber was filled with BSA or various OPN fragments (10 nM) in presence of 0.2 mM MnCl2 (Sigma, St Louis, MO) and incubated at 37° C. for 24 hr. Cells that migrated to the lower chamber were centrifuged and resuspended into 90 ul of 1×HBSS (Gibco Life Technologies, Langley, OK) with 10 μl of CCK-8 staining solution (Dojindo Molecular Technologies Inc., Rockville, MD). Cells were incubated for 2 hr before measuring absorbance at 450 nm.

B16 cells [4] = experiment: Cell adhesion assay, B16 cells; assay type: cell-based, mouse; conditions: wells coated at 20 nM
Experimental: Cell adhesion assay: Wells in 96-well plate was coated with either BSA or different OPN fragments at a concentration of 20 nM in coating buffer (Gibco Life Technologies, Langley, OK) and incubated at 4° C. overnight. The plate was then washed thrice with PBS before blocking with 3% BSA for 1 hr. The cells were washed thrice with 1×HBSS containing 0.2 mM MnCl2. 2×10^6 B16 or RAW cells were added to the wells and incubated at 37° C. for 1 hr. Wells were washed and cells fixed with absolute ethanol for 20 min before staining with 0.1% crystal violet. Cells were washed repeatedly with PBS until no violet color was visible, lysed with 0.5% Triton X-100 and absorbance determined at 570 nm.

[5] = parenteral; particularly limited small cell lung cancers; cited from earlier work
B16 cells [6] = conditions: in vivo; cited from earlier work
RAW cells = experiment: PGE2 assay, RAW cells; assay type: cell-based, mouse; conditions: 10 nM
Experimental: PGE2 assay: 5×10^5 RAW cells were plated onto 6-well plate in serum free medium with either BSA or various OPN fragments (10 nM). Cells were cultured overnight before collecting the media and determining PGE2 by ELISA (Enzo, Farmingdale, NY).

B16 cells [7] = experiment: B16 pulmonary metastasis model, mice fed DE chow; assay type: in vivo, mouse
Experimental: Animals were monitored daily and sacrificed after 2 weeks. […] B16 metastasis model: 0.5×10^6 B16 cells were injected via tail vein into mice. After sacrifice, the lung was isolated and the number of metastatic nodules on surface was counted on both sides, before analyzing the left lobe for melanin determination. The left lobe of lung from each mouse was incubated in 1N NaOH/10% DMSO for 2 hr at 80° C. before centrifugation at 12,000 rpm for 10 min at room temperature. The absorbance at 470 nm of the supernatant was measured and compared to a standard of synthetic melanin (Sigma, St. Louis, MO). Lung was weighed before the start of process and melanin content was expressed as μg/mg protein determined by protein assay of lung tissue.

B16 tumors = experiment: B16 subcutaneous (flank) tumor model, mice fed dabigatran etexilate chow; assay type: in vivo, mouse
Experimental: B16 subcutaneous tumor inoculation: B16 cells were grown until confluent and 2×10^6 cells were inoculated subcutaneously into WT, OPN-KI and OPN-KO mice. Mice were monitored daily for tumor growth. Tumor size was measured and volume calculated using the equation (width×width×length)/2. Animals were euthanized using CO2 and blood collected by cardiac puncture and tumors were isolated carefully. Blood was centrifuged at 2500 rpm for 20 min to prepare plasma and stored at −80° C. Tumors were weighed and measured. Part of the tumor was stored in formaldehyde for immunohistochemistry, part of it was frozen and stored at −80° C. for preparation of tumor lysates for OPN ELISAs. […] Animals were monitored daily and sacrificed after 2 weeks.

thrombin = thrombin (Homo sapiens, UniProt P00734); experiment: Thrombin treatment of E. coli produced GST-OPN and GST-OPNR153A, SDS-PAGE; assay type: biochemical; conditions: thrombin 10 nM, time course
Experimental: FIGS. 1A-1D: B16 tumors grow slower in OPN-KO and OPN-KI than WT mice in the flank model. FIG. 1A. Model of OPN cleavages and its functional modulation by thrombin and carboxypeptidase N or B2. OPN-FL=OPN-full length (SEQ ID NO:5); OPN-R=OPN-Arg (SEQ ID NO:6); OPN-L=OPN-Leu (SEQ ID NO:8). DC=dendritic cells. FIG. 1B. Time course of thrombin treatment (10 nM) of E. coli produced GST-OPN and GST-OPNR153A analyzed by SDS-PAGE. FL=full length, NTF=N-terminal fragment, CTF=C-terminal fragment (SEQ ID NO:7). FIG. 1C. Daily determination of B16 tumor volume grown on WT, OPN-KI and OPN-KO mice. FIG. 1D. B16 tumor weight after sacrifice. All data are shown as mean±SEM. Statistical significance was calculated by one-way ANOVA followed by Tukey's multiple comparison test.
The OPN-KI (OPNR153A) mice, similar to OPN-KO mice, were fertile and healthy before challenge, without any phenotypic changes observable in CBC, liver function and kidney function (FIGS. 9 and 10)

[8] = OPN-KI or OPN-KO mice, trend, compared to untreated mice of same genotype
[9] = WT mice, compared to control WT mice, 13 days after inoculation

Molecule: O=C(NC[C@H]1CN(c2ccc(N3CCOCC3=O)cc2)C(=O)O1)c1ccc(Cl)s1 [rivaroxaban]
antitumor immunity (in words) [1]: promote antitumor immunity

Molecule: OPN-CTF: C-terminal OPN fragment after thrombin cleavage (SEQ ID NO:7) (SKSKKFRR; OPN-CTF)
anti-apoptotic effect on B16 cells (in words) (B16 cells [2]): no anti-apoptotic effect | B16 chemotaxis/migration relative to OPN-FL (in words: significantly increased or not) (B16 cells [3]): comparable to OPN-FL

Molecule: OPN-L: OPN-R with C-terminal arginine removed by CPN or CPB2 (SEQ ID NO:8) (RGDSVVYGL; OPN-L)
reduction of B16 cell apoptosis compared to BSA (B16 cells [2]): ~3 fold | B16 cell adhesion compared to OPN-R (in words) (B16 cells [4]): reduced adhesion | B16 chemotaxis/migration relative to OPN-FL (in words: significantly increased or not) (B16 cells [3]): not

Molecule: OPN-FL: recombinant full length osteopontin (SEQ ID NO:5) (RGDSVVYGLRSKSKKFRR; OPN-FL)
reduction of B16 cell apoptosis compared to BSA (B16 cells [2]): ~3 fold | B16 cell migration compared to BSA (in words) (B16 cells [3]): increased migration

Molecule: heparin
survival of cancer patients (in words) [5]: survival benefit

Molecule: hirudin
metastasis of B16 cells (in words) (B16 cells [6]): prevented metastasis

Molecule: OPN-R: thrombin-cleaved OPN N-terminal fragment ending in Arg (SEQ ID NO:6) (RGDSVVYGLR; OPN-R)
reduction of B16 cell apoptosis compared to BSA (B16 cells [2]): ~3 fold | B16 cell migration compared to BSA (in words) (B16 cells [3]): increased migration | secretion of PGE2 by RAW cells (in words) (RAW cells): significantly enhanced

Molecule: CCCCCCOC(=O)N=C(N)c1ccc(NCc2nc3cc(C(=O)N(CCC(=O)OCC)c4ccccn4)ccc3n2C)cc1 [DE, dabigatran etexilate]
melanin content of lungs (B16 cells [7]; [8]): decreased | pulmonary metastases (B16 cells [7]; [8]): fewer | melanin content of lungs (B16 cells [7]; [9]): reduced | metastatic nodules/lung (B16 cells [7]; [9]): fewer | effect on B16 local tumor growth, weight and volume (in words) (B16 tumors; OPN-KI (and OPN-KO) mice): did not further reduce; also recorded: no effect | tumor weight after sacrifice (B16 tumors; OPN-KI mice, DE-containing chow, in g): 0.8±0.9 | tumor volume after sacrifice (B16 tumors; OPN-KI mice, DE-containing chow, mean±SEM): 0.73±0.3 cm^3 | B16 tumor growth (in words) (B16 tumors; WT mice): tumor suppression; also recorded: grew slower | tumor volume after sacrifice (B16 tumors; WT mice, DE-containing chow from 4 days before B16 inoculation until sacrifice, mean±SEM): 1.0±0.2 cm^3 | tumor weight after sacrifice (B16 tumors; WT mice, DE-containing chow, mean±SEM): 1.0 ± 0.2 g

thrombin cleavage (in words) (thrombin): resistant to thrombin cleavage
Molecule: OPNR153A: mutant OPN with arginine in the thrombin cleavage site mutated to alanine (R153A), expressed in E. coli
